Source: patent US11421237B2, “Pair of amino acid sequences for monitoring formation of TDP-43 oligomer in living cells via bimolecular fluorescence complementation” (KOREA INSTITUTE OF SCIENCE AND TECHNOLOGY, priority 2019, dated 2022)
“And” between values parts separate entries of the source, which are not always exact repeats. Equal entries are not always repeated. “Also recorded” adds a separate entry of the source. Peptide text beside a SMILES is read from it. * marks the point of attachment. Cbz = O=C(OCc1ccccc1)*

Columns and labels:
Format in all cases: cell-based, human
[1] = test system: TDP-43-BiFC cells; assay: BiFC fluorescence analysis of TDP-43 oligomer formation in TDP-43-BiFC cells (384-well, Operetta); conditions: 48 hours at 37° C.; for increase of BiFC fluorescence in the cells compared to untreated cells: forskolin 30 μM, scriptaid 3 μM, thapsigargin 1 μM, ionomycin 1 μM, Cu^2+ 1 μM, Zn^2+ 30 μM; for change in BiFC fluorescence of TDP-43 (in words): MG132 5 μM, α-synuclein 5 μg/ml, tauK18^P301L 5 μg/ml
Method: In order to develop a TDP-43-BiFC cell line, the TDP-43-VN173 and TDP-43-VC155 constructs shown in FIG. 2 were co-transfected into HEK293 BiFC cells. For establishment of a stable cell line, the transfected cells were selected by culture with growth medium containing 100 μg/mL geneticin (G418; Sigma). In addition, the selected cells were sorted using FACSAria (BD Bioscience) into cells showing fluorescence. The sorted TDP-43-BiFC cells were kept in DMEM medium containing 10% FBS, 100 units/mL penicillin, 100 μg/mL streptomycin and 100 μg/mL G418 in a humidified atmosphere at 37° C. under 5% CO2.
The TDP-43-BiFC cells prepared in Example 1 above were treated with a compound that induces PTMs of protein, a compound that ER stress in cells, amyloid protein, metal ions, or the like, and changes in BiFC fluorescence in the cells were examined. Specifically, for fluorescence analysis, the TDP-43-BiFC cells were grown in a 384-well plate and treated with each of forskolin (30 μM), scriptaid (3 μM), thapsigargin (1 μM), ionomycin (1 μM), MG132 (5 μM), α-synuclein (5 μg/ml), tauK18^P301L (5 μg/ml), Cu^2+ (1 μM) and Zn^2+ (30 μM), followed by culture at 37° C. for 48 hours. Fluorescence images were obtained using Operetta® (PerkinElmer), and the fluorescence intensity in the nucleus and the cytoplasmic fluorescence intensity were analyzed using Harmony3.1 software (PerkinElmer).

[2] = test system: TDP-43-BiFC cells; assay: Intracellular distribution of BiFC fluorescence, high-magnification imaging; conditions: treated as in Example 2 (scriptaid 3 μM, 48 hours); 1000× magnification
Source text: Next, the pattern of intracellular distribution by an increase in TDP-43 oligomer formation was examined. Specifically, TDP-43 formation was induced in the same manner as Example 2 above, and then the whole plate was automatically imaged using Operetta®, and high-resolution images were obtained using a Nikon Eclipse inverted microscope (Ti, Nikon) at 1000× magnification.

[3] = test system: TDP-43-BiFC cells; assay: Isolation of TDP-43 oligomer with GFP-trap beads and immunoblot with anti-TDP-43 antibody; conditions: 24 hours at 37° C., forskolin 30 μM, scriptaid 1 μM, thapsigargin 0.5 μM, ionomycin 1 μM, SDS-PAGE, immunoblot
Method: Lysates of the TDP-43-BiFC cells treated with each of the four drugs in Example 3 and a lysate of untreated cells were prepared and TDP-43 oligomers were isolated therefrom. Specifically, TDP-43-BiFC cells were grown in a 6-well plate, treated with each of forskolin (30 μM), scriptaid (1 μM), thapsigargin (0.5 μM) and ionomycin (1 μM), and cultured at 37° C. for 24 hours, and then lysates of the cells were prepared. GFP-trap beads shown in FIG. 5a were added to the lysates which were then incubated at 4° C. for 16 hours, and the oligomerized TDP-43 protein was isolated. The isolated protein was separated by SDS-PAGE, and immunoblot analysis was performed using anti-TDP-43 antibody.

Row | Molecule | increase of BiFC fluorescence in the cells compared to untreated cells [1] | change in BiFC fluorescence of TDP-43 (in words) [1] | also measured
1 | [Cu+2] [Cu^2+] | about 2 fold |  | 
2 | CC(C)C[C@@H](C=O)NC(=O)[C@H](CC(C)C)NC(=O)[C@H](CC(C)C)NC(=O)OCc1ccccc1 [MG132] (Cbz-Leu-Leu-Leu-aldehyde) |  | no change | 
3 | [Zn+2] [Zn^2+] | about 2 fold |  | 
4 | C[C@H](CCC(=O)O)C[C@H](C)C[C@H](C)C(=O)/C=C(\O)[C@H](C)C[C@H](C)C/C=C/[C@@H](C)[C@@H](O)[C@@H](C)[C@@H](O)C[C@@H]1CC[C@@](C)([C@H]2CC[C@@](C)([C@@H](C)O)O2)O1 [ionomycin] | 7 fold |  | 
5 | O=C(CCCCCN1C(=O)c2cccc3cccc(c23)C1=O)NO [scriptaid] | 36 fold and 48 fold |  | distribution of BiFC fluorescence in nucleus and cytoplasm [2]: greatly increased the fluorescence not only in the nucleus but also in the cytoplasm; also recorded: significantly increased not only in the nucleus but also in the cytoplasm; amount of detected oligomerized TDP-43 protein compared to untreated cells [3]: largest amount
6 | C/C=C(/C)C(=O)O[C@H]1C(C)=C2[C@H]([C@@H]1OC(=O)CCCCCCC)[C@@](C)(OC(C)=O)C[C@H](OC(=O)CCC)[C@@]1(O)[C@H]2OC(=O)[C@@]1(C)O [thapsigargin] | 31 fold |  | 
7 | tauK18^P301L |  | did not increase | 
8 | α-synuclein |  | did not increase | 
